The source of these data is US20040253289A1, “Natural plant compound with anti-HIV activity” (MIKONIK TECHNOLOGIES, LTD., priority 2004, published 2004).

The subject of data set [1] is human immunodeficiency virus. The conditions noted are these: cited from earlier work; for inhibition of viral replication: in vitro.
Data set [2] concerns mice. The settings on record: acute toxicity; cited from earlier work.
Data set [3] deals with rats. The conditions noted are these: acute toxicity; cited from earlier work.
The test system of data set [4] is HIV-1zmb high/rapid strain. Briefly: In vitro anti-HIV activity in infected cell culture (overall, three tests). The format is cell-based. The source says: (§1) In all experiments the suspensional T-lymphoblastoid cell line MT-4 was used. Passages have been carried out every three days for achieving the initial cell concentration at about 4-5·10^5 cells ml^−1.
(§2) HIV-1zmb high/rapid strain with the titer more than 6.0 log TCID50 isolated in Belarus has been used in the tests.
(§3) The tests have been carried out under therapeutic circuit when the testing compound and virus were put into the cell culture simultaneously.

Data set [5] relates to HIV-1zmb high/rapid strain. The data set is described as follows: Indirect immunofluorescence (IF), HIV-specific antigens on infected cells. The format is cell-based. The settings on record: 3rd day after infecting.
Text: as §1, §2, §3
The indirect immunofluorescence assay is a useful means for determining the number of cells productively infected with HIV [Johnson V. A., Byington R. E. HIV indirect immunofluorescence assay. In “Techniques in HIV Research”: Stockton Press, 1990. P. 87-91]. This assay is quantitative and can be done using living cells. The technique gives the possibility to determine HIV-specific antigens expressed on cell surface membranes of the virus-infected cells. On the 3rd day after infecting, cells have been transferred onto wells of the laminated multiwell slides and fixed by cold (4° C.) acetone. Then the samples with fixed cells were treated by HIV-1-seropositive serum and then by FTC-conjugated sheep anti-human IgG. The resulting effect was estimated via evaluation of percentage of positive cells that was calculated using fluorescent microscope and taking into account 200 cells. […]

Data set [6] relates to Siberian sturgeon fry. The settings on record: Siberian sturgeon fry treated with solution; cited from earlier work.
For data set [7] the following is noted: prolonged and chronic experiments; cited from earlier work.

Turning to `C[C@H](CCCC(C)(C)O)[C@H]1CC[C@H]2[C@@H]3[C@@H](O)C=C4C[C@@H](O)CC[C@]4(C)[C@H]3CC[C@]12C` [7β,25-dihydroxycholesterol], the “antiviral concentration, fold lower than the highest concentration tested at which no toxicity was measurable” value in data set [1] (HIV replication in vitro) is recorded as 13- to 25 fold. In addition, in data set [1], the “inhibition of viral replication” value is given as “inhibited viral replication at micromolar concentrations”.

For the compound `CC(C)CCC[C@@H](C)[C@H]1CC[C@H]2[C@@H]3[C@@H](O)C=C4C[C@@H](O)CC[C@]4(C)[C@H]3CC[C@]12C` [7β-hydroxycholesterol], the “inhibition of viral replication” value in data set [1] was “inhibited viral replication at micromolar concentrations”.

`CC(C)[C@@H](C)[C@@H](O)[C@H](O)[C@@H](C)[C@H]1CC[C@H]2[C@@H]3COC(=O)[C@H]4C[C@H](O)[C@H](O)C[C@]4(C)[C@H]3CC[C@]12C` [24-epibrassinolide]: the LD50 result in data set [2] is “more than 1000 mg·kg^−1”; in data set [3] it was “more than 2000 mg·kg^−1”. Further, in data set [4] (4-5th days after infecting), the “amount of the living cells in the infected culture, higher in comparison with untreated control” value is reported as “more than 50%”. The “average efficient concentration as anti-HIV agent in vitro” value in data set [4] (each test done in three repetitions, listed as EBI) was determined as 10 ng/mL. Moreover, the “production of viral-specific antigens on the cell's surface” value in data set [5] is reported as “significantly decreased production of viral-specific antigens”. Besides, in data set [6], the “increase of bacteriolytic activity of lysozyme in comparison with the control fish” value is reported as “up to 50%”. Further, in data set [6], the “γ-globulin level higher than in the control” value was 10 to 65%. In addition, the postponed negative effects entry in data set [7] is on record as “no postponed negative effects”.

For `C[C@H](CCCC(C)(C)O)[C@H]1CC[C@H]2[C@@H]3CC=C4C[C@@H](O)CC[C@]4(C)[C@H]3CC[C@]12C` [25-hydroxycholesterol], the “inhibition of viral replication” value in data set [1] was “inhibited viral replication at micromolar concentrations”.
